The nature of series [1]: Amcenestrant PK parameters at steady state in patients. It is filed as in vivo, human. Particulars: for AUC(0-t) / Cmax / Tmax / concentration at 0 h: human, plasma, oral; for Tmax: read-out: Tmax (median); for concentration at 0 h: read-out: Ctrough (arithmetic mean).
A short description of series [2]: Published palbociclib exposure data (A5481001, A5481003, A5481008, Ibrance label). It is filed as in vivo. Particulars: human, plasma; A5481001, A5481003, A5481008, N=57; read-out: AUC0-24 h, reference: geometric mean of individual studies weighed by number of subjects (converted).
The conditions of series [3]: cited from earlier work.
The conditions of series [4]: cited from earlier work. The source holds these as a separate data set.
For series [5] the following is noted: pooled analysis, 1666 patients treated with palbociclib; cited from earlier work.
Where [6] appears, read: amcenestrant 200 mg with palbociclib, steady state Day 21, N=8.
Setting [7] is: amcenestrant 400 mg monotherapy, steady state, N=13.
The mark [8] stands for this setting: amcenestrant 400 mg with palbociclib, steady state Day 21, N=5.

Where two headings read alike, the source gives them in different places.

For the compound `O=C(O)c1ccc2c(c1)CCCC(c1ccc(Cl)cc1Cl)=C2c1ccc(O[C@H]2CCN(CCCF)C2)cc1` [Amcenestrant, 6-(2,4-dichlorophenyl)-5-[4-[(3S)-1-(3-fluoropropyl)pyrrolidin-3-yl]oxyphenyl]-8,9-dihydro-7H-benzo[7]annulene-2-carboxylic acid], the “CLss/F (arithmetic mean)” value in series [1] (setting [6]) is 10.7 L/h; in series [1] (amcenestrant 200 mg with palbociclib, steady state Day 21, N=8, listed as amcenestrant), 10.7 ± 3.38 L/h; in series [1] (setting [7]), 10.6 L/h; in series [1] (amcenestrant 400 mg monotherapy, steady state, N=13, listed as amcenestrant), 10.6 ± 4.35 L/h; in series [1] (setting [8]), 13.5 L/h; in series [1] (amcenestrant 400 mg with palbociclib, steady state Day 21, N=5, listed as amcenestrant) it was 13.5 ± 5.36 L/h. Moreover, the figures for the “Ctrough [geometric mean]” value in series [1] (setting [6]), in series [1] (setting [7]) and in series [1] (setting [8]) were “[215] ng/mL”, “[466] ng/mL” and “[248] ng/mL”, respectively. Besides, the “systemic clearance higher than after amcenestrant 400 mg QD single agent” value in series [1] (amcenestrant 400 mg with palbociclib, Day 21) was found to be 28%. Also, the AUC(0-t) in series [1] (female, 200 mg, amcenestrant 200 mg with palbociclib, steady state Day 21, N=8, read-out: AUC0-24h (arithmetic mean) (converted)) is 20600 ng·h/mL; in series [1] (female, 400 mg, amcenestrant 400 mg with palbociclib, steady state Day 21, N=5, read-out: AUC0-24h (arithmetic mean) (converted)) it was 33100 ng·h/mL; in series [1] (female, 400 mg, amcenestrant 400 mg with palbociclib, steady state Day 21, N=5, read-out: AUC0-24h [geometric mean]), 31400 ng·h/mL; in series [1] (200 mg, amcenestrant 200 mg with palbociclib, steady state Day 21, N=8, read-out: AUC0-24h [geometric mean]), 19500 ng·h/mL; in series [1] (400 mg, amcenestrant 400 mg monotherapy, steady state, N=13, read-out: AUC0-24h (arithmetic mean) (converted)) it was 43200 ng·h/mL; in series [1] (400 mg, amcenestrant 400 mg monotherapy, steady state, N=13, read-out: AUC0-24h [geometric mean]) it was 40400 ng·h/mL. In addition, the Cmax was 2060 ng/mL in series [1] (female, 200 mg, amcenestrant 200 mg with palbociclib, steady state Day 21, N=8, read-out: Cmax (arithmetic mean)); 4350 ng/mL in series [1] (female, 400 mg, amcenestrant 400 mg with palbociclib, steady state Day 21, N=5, read-out: Cmax (arithmetic mean)); 3450 ng/mL in series [1] (female, 400 mg, amcenestrant 400 mg with palbociclib, steady state Day 21, N=5, read-out: Cmax [geometric mean]); 1940 ng/mL in series [1] (200 mg, amcenestrant 200 mg with palbociclib, steady state Day 21, N=8, read-out: Cmax [geometric mean]); 4380 ng/mL in series [1] (400 mg, amcenestrant 400 mg monotherapy, steady state, N=13, read-out: Cmax (arithmetic mean)); 4220 ng/mL in series [1] (400 mg, amcenestrant 400 mg monotherapy, steady state, N=13, read-out: Cmax [geometric mean]). The Tmax in series [1] (female, 200 mg) is 4.88 h; in series [1] (female, 400 mg), 4 h; in series [1] (400 mg) it was 3 h. Further, the concentration at 0 h in series [1] (female, amcenestrant 200 mg with palbociclib, steady state Day 21, N=8) is 226 ng/mL; in series [1] (female, amcenestrant 400 mg with palbociclib, steady state Day 21, N=5) it was 280 ng/mL; in series [1] (400 mg, amcenestrant 400 mg monotherapy, steady state, N=13), 630 ng/mL.

As for `CC(=O)c1c(C)c2cnc(Nc3ccc(N4CCNCC4)cn3)nc2n(C2CCCC2)c1=O` [Palbociclib, 6-acetyl-8-cyclopentyl-5-methyl-2-{[5-(piperazin-1-yl)pyridin-2-yl]amino}pyrido[2,3-d]pyrimidin-7(8H)-one], the AUC(0-t) in series [2] is 1970 ng·h/mL. Also, in series [3] (Ibrance U.S. label), the “decrease of exposure when combined with a moderate CYP3A inducer (modafinil)” value is 32%. Besides, in series [3] (study A5481001, palbociclib monotherapy, steady state, N=4), the “Cmax, arithmetic mean (CV %)” value was 97.4 (41%) ng/mL. For the same compound, the “Cmax, geometric mean (CV %)” value in series [3] (study A5481003, palbociclib monotherapy, steady state, N=12) was 116 (28%) ng/mL; in series [3] (study A5481008, palbociclib with letrozole, steady state, N=41) it was 110 (35%) ng/mL. Also, the solubility result is on record as “reduces significantly” in series [4] (Above pH 4) and “high-solubility compound” in series [4] (At or below pH 4). In series [5], the “neutrophil count decrease, any grade” value is 95.2%.
